The text below walks through data of ChEMBL document CHEMBL5465560, “Selectivity Literature for EUbOPEN Chemogenomic Library” (2024).

Assay [1] has as its target T1, Serine/threonine-protein kinase Sgk1 (Homo sapiens) (UniProt O00141).
T1 sequence (whole entry): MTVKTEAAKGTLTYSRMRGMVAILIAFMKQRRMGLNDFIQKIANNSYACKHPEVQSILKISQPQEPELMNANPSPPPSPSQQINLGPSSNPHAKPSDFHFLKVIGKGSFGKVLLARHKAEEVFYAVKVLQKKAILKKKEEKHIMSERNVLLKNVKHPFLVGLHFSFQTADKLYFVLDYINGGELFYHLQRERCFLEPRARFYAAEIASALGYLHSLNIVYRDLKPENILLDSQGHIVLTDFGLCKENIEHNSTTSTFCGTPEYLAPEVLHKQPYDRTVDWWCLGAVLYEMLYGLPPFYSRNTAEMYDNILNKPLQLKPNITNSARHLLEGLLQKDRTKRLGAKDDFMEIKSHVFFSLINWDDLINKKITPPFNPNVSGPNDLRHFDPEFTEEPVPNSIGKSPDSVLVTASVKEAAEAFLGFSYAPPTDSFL
Nature of the assay: Selectivity interaction (Millipore kinase profiler) EUB0000124b SGK1. The conditions noted are these: at 10 µM.

The target of assay [2] is Ribosomal protein S6 kinase alpha-5 (Homo sapiens) (UniProt O75582). Kind of assay: Selectivity interaction (KinomeScan (DiscoverX)) EUB0000695a RPS6KA5. To be noted: at 100 nM.
In assay [3] the target is T2, Histone-lysine N-methyltransferase NSD3 (Homo sapiens) (UniProt Q9BZ95).
T2 sequence (whole entry): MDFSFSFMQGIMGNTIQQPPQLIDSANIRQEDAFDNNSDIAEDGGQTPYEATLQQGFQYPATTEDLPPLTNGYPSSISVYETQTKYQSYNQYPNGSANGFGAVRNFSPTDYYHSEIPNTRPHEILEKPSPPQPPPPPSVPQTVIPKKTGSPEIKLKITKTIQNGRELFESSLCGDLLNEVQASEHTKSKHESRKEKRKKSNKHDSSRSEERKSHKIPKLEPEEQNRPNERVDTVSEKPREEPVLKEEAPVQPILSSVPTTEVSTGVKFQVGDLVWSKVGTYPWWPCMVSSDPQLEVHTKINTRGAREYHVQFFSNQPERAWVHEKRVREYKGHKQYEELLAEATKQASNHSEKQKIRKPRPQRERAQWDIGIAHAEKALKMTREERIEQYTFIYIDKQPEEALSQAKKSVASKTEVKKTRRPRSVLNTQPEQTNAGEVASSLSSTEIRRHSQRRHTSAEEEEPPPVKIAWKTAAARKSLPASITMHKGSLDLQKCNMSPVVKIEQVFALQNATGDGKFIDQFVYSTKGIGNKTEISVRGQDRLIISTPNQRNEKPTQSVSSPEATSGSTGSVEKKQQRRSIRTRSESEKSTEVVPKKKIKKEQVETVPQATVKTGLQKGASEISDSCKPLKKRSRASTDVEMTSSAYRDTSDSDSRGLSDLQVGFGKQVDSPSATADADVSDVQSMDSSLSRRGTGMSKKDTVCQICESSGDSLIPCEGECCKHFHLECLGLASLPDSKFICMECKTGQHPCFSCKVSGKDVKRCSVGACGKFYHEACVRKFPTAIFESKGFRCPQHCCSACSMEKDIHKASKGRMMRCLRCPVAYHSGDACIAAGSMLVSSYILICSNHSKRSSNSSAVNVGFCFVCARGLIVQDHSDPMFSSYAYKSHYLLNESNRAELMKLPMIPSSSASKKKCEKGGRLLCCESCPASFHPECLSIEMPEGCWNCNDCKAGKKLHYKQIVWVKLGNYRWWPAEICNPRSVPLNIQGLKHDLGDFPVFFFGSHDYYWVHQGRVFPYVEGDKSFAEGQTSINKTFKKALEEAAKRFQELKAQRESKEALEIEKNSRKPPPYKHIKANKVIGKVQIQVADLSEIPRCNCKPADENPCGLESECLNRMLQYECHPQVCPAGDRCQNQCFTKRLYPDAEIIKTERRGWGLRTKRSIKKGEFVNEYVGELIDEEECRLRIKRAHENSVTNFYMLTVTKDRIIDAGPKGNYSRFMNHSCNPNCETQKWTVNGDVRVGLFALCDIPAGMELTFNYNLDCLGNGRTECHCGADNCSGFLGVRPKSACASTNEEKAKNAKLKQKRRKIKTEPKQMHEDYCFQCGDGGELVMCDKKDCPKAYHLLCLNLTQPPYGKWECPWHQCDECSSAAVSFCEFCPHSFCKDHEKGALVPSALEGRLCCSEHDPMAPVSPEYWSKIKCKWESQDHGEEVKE
Kind of assay: Selectivity interaction (Methyltransferase screen (radiometric assays, panel of 8 PRMTs, 21 protein lysine methyltransferases, 3 DNA methyltransferases, and one RNA methyltransferase)) EUB0000271b NSD3.

Assay [4] concerns the target Proto-oncogene tyrosine-protein kinase Src (Homo sapiens, UniProt P12931). Kind of assay: Selectivity interaction (KinomeScan (DiscoverX)) EUB0000607a SRC. The conditions noted are these: at 10 µM.
The target in assay [5] is T3, Cyclin-dependent kinase-like 5 (Homo sapiens) (UniProt O76039).
T3 sequence (whole entry): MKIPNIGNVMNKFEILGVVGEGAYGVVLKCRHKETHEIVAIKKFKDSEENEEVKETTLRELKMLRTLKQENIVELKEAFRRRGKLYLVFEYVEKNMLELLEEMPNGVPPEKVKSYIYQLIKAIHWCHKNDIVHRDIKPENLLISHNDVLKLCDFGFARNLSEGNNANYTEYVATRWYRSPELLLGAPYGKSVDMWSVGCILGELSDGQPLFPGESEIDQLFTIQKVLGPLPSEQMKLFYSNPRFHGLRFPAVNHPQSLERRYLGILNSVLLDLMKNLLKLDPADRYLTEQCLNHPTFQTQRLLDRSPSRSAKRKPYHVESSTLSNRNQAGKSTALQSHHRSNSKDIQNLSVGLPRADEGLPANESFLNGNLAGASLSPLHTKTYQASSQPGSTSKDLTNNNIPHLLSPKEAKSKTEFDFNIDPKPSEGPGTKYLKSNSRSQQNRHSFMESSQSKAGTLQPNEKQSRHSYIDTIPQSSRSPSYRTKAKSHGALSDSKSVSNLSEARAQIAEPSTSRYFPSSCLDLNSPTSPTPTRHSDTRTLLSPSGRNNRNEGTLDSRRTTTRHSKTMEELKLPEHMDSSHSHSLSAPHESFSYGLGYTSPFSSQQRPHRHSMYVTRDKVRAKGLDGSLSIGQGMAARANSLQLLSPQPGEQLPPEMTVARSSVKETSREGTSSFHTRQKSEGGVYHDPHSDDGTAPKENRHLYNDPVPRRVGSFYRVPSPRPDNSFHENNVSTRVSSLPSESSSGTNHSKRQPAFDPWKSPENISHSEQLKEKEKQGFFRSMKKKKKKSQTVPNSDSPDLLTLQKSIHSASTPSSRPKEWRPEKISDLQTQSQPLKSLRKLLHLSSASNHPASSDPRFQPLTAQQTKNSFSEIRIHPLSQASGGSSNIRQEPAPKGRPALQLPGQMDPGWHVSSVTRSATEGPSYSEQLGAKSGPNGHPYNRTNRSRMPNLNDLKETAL
Kind of assay: Selectivity interaction (KinomeScan (DiscoverX)) EUB0000229b CDKL5. To be noted: at 10 µM.

Sequence of Ribosomal protein S6 kinase alpha-5 (Homo sapiens) (O75582 whole entry, looked up): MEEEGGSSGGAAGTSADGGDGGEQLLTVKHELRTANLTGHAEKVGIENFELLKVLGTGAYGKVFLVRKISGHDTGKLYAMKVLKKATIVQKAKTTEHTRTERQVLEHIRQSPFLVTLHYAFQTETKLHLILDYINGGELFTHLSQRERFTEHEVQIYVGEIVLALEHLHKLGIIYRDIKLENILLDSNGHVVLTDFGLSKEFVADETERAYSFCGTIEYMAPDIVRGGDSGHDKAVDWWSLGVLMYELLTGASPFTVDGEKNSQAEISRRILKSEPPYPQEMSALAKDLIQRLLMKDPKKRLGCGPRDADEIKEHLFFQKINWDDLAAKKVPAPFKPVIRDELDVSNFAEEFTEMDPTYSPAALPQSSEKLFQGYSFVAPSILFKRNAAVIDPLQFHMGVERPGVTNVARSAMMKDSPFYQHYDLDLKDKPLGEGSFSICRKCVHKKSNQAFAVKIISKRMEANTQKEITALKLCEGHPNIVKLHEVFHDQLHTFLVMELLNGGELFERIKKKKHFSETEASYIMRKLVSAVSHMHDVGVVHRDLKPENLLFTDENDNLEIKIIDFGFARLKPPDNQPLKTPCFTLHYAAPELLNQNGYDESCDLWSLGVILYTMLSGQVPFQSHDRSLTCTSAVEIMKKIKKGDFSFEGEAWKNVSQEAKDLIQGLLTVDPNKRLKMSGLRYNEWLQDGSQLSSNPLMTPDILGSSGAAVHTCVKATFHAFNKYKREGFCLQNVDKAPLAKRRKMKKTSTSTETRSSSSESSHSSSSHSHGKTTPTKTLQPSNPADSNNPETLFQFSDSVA
Sequence of Proto-oncogene tyrosine-protein kinase Src (P12931 2-536 limits assumed): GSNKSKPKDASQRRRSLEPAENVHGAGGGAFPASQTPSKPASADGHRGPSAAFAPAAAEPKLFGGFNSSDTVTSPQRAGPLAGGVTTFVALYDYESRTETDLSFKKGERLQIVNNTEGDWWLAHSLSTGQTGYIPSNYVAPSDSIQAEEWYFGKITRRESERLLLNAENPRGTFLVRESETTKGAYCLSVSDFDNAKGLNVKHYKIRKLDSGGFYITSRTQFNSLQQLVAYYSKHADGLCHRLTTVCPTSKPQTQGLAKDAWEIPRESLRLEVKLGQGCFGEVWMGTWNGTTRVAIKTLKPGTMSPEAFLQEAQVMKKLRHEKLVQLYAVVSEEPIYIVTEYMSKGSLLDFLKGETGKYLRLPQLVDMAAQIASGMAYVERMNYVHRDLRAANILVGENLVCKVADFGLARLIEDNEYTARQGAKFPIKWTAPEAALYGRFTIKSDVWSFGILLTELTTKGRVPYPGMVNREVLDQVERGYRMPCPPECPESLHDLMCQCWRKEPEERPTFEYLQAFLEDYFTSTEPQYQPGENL

Take `CC(=O)Nc1cccc(-n2c(=O)n(C3CC3)c(=O)c3c(Nc4ccc(I)cc4F)n(C)c(=O)c(C)c32)c1`: the % of control in assay [1] amounted to 114%.
`Cc1cc(F)c(C(=O)Nc2cccc(-c3nncn3C(C)C)n2)cc1-n1cnc(C2CC2)c1` gave a % of control in assay [2] of 100%.
As to `Cc1cc(C)cc([C@@H]2c3cc(C)ccc3NC(=O)CN2C(=O)c2ccc(Br)s2)c1`, the figures for the % of activity in assay [3] (at 1 µM) and in assay [3] (at 10 µM) were 99.3% and 104%, respectively.
Compound `CNC(=O)Nc1ccc(-c2nc(N3CC4CCC(C3)O4)c3cnn(C4CCC5(CC4)OCCO5)c3n2)cc1` returned a % of control in assay [4] of 75%.
For the compound `COc1cc(N(C)c2ccnc3ccc(C(F)(F)F)cc23)cc(OC)c1OC`, in assay [5], the % binding is 86%.
